Measurements: patent US20220175761A1, “BI-LIGAND DRUG CONJUGATE AND USE THEREOF” (COHERENT BIOPHARMA (SUZHOU), LIMITED, priority 2019, published 2022)
Numbered stars: 1 amine (or outer) side, 2 acyl side, 3 side chain; on linkers, the order of the positions; unused ones are H or OH. Bridge positions count the residues as written; N and C are the ends. Square brackets hold non-standard residues; d marks the D form. Peptide text beside a SMILES is read from it. I, II: the chains in the order shown. * marks the point of attachment. ξ: configuration not given here. Hexanoyl(6-succinimido-3yl) = O=C1CC([*:1])C(=O)N1CCCCCC(=O)[*:2]; EuK = O=C(O)CC[C@H](NC(=O)N[C@@H](CCCCN*)C(=O)O)C(=O)O; Dolaproine = CO[C@@H]([C@@H]1CCCN1)[C@@H](C)C(=O)O; Dil = CC[C@H](C)[C@H](NC)[C@@H](CC(=O)O)OC; PABC = O=C(OCc1ccc(N[*:1])cc1)[*:2]; X1 = C[C@@H](N*)[C@@H](O)c1ccccc1; X2 = O=C(Cc1ccc(CN[*:1])cc1)[*:2]; PEG4 = NCCOCCOCCOCCOCCC(=O)O; NMeV = CN[C@H](C(=O)O)C(C)C; ξCit = NC(=O)NCCCC(N)C(=O)O; CO = O=C([*:1])[*:2]; Butyryl = CCCC(=O)*; Ahx = NCCCCCC(=O)O

How the values were obtained:
[1] = test system: LNCaP (human prostate cancer cells); assay: Inhibition of cell line proliferation, CCK8; assay type: cell-based; details: LNCaP
Excerpt: Since different cells have different sensitivity to a cell proliferation inhibitory toxicity of the payload in a ligand conjugate, the quantitative analysis may be interfered occasionally. A series of cell lines with known expression levels of receptors of different ligands were selected and tested for the response to inhibitory effects of the cell proliferation of a ligand conjugate and a single payload. The IC50 ratio of a single payload to that of a ligand conjugate in same cell line were taken to remove such interference.
Experimental operations: LNCaP and 22RV1 cells were prepared in advance, counted, and plated in 96-well cell culture plates at a cell density of 4×10^4 cells/ml and 2.0×10^4 cells/ml, respectively (100 μl/well); negative control and blank control wells were set on each plate. After adherent cell culture overnight, the diluted samples to be tested were added at 50 μl/well. The plates were placed in an incubator at 37° C., 5% CO2 and cultured for 68-72 hours. To each well, 15 μl (10% of the liquid volume in a well) of a color developing solution from CCK8 was added; and the plates were incubated at 37° C. for 45-70 minutes and each plate was read at 450 nm on a microplate reader. The data was edited using SoftMax Pro and a 4-P fitting curve was plotted. […]

[2] = test system: CFPAC-1 (human pancreatic cancer cells); assay: Inhibition of cell line proliferation, CCK8; assay type: cell-based
Description: (§1) Experimental operations: PANC-1 and CFPAC-1 cells were prepared in advance, counted, and plated in 96-well cell culture plates at a cell density of 4×10^4 cells/ml (100 μl/well); negative control and blank control wells were set on each plate. After adherent cell culture overnight, the diluted samples to be tested were added at 50 μl/well. The plates were placed in an incubator at 37° C., 5% CO2 and cultured for 68-72 hours. To each well, 15 μl (10% of the liquid volume in a well) of a color developing solution from CCK8 was added; and the plates were incubated at 37° C. for 45-70 minutes and each plate was read at 450 nm on a microplate reader. The data was edited using SoftMax Pro and a 4-P fitting curve was plotted.
(§2) Experimental operations: LNCaP, SK-BR-3, NCI-H226, CFPAC-1 and PANC-1 cells were prepared in advance and counted; with a culture medium (IMDM+10% FBS+1× L-Glutamine+1×P/S), the cells LNCaP, SK-BR-3 and CFPAC-1 were diluted to 4×10^4 cells/ml, NCI-H226 was diluted to 2.0×10^4 cells/ml and PANC-1 was diluted to 3.0×10^4 cells/ml; the diluted cell solution was plated in 96-well plates at 100 μl/well; and negative control and blank control wells were set on each plate. After adherent cell culture overnight, the diluted samples to be tested were added at 50 μl/well. The plates were placed in an incubator at 37° C., 5% CO2 and cultured for 68-72 hours. To each well, 15 μl (10% of the liquid volume in a well) of a color developing solution from CCK8 was added; and the plates were incubated at 37° C. for 45-70 minutes and each plate was read at 450 nm on a microplate reader. The data was edited using SoftMax Pro and a 4-P fitting curve was plotted.
(§3) Experimental Operations: LNCaP, SK-BR-3, MDA-MB-468 and CFPAC-1 cells were prepared in advance and counted; with a culture medium (IMDM+10% FBS+1× L-Glutamine+1×P/S), the cells LNCaP, SK-BR-3, MDA-MB-468 and CFPAC-1 were diluted to 4×10^4 cells/ml; the diluted cell solution was plated in 96-well plates at 100 µl/well; and negative control and blank control wells were set on each plate. After adherent cell culture overnight, the diluted samples to be tested were added at 50 μl/well. The plates were placed in an incubator at 37° C., 5% CO2 and cultured for 68-72 hours. To each well, 15 μl (10% of the liquid volume in a well) of a color developing solution from CCK8 was added; and the plates were incubated at 37° C. for 45-70 minutes and each plate was read at 450 nm on a microplate reader. The data was edited using SoftMax Pro and a 4-P fitting curve was plotted.
as §3, with “Operations: LNCaP, MDA-MB-468, CFPAC-1 and PANC-1” for “Operations: LNCaP, SK-BR-3, MDA-MB-468 and CFPAC-1”, “CFPAC-1 and PANC-1 cells were” for “MDA-MB-468 and CFPAC-1 cells were”, “cells LNCaP, MDA-MB-468 and” for “cells LNCaP, SK-BR-3, MDA-MB-468 and”, “to 4×10^4 cells/ml, and PANC-1 was diluted to 3.0×10^4 cells/ml; the” for “to 4×10^4 cells/ml; the”, “at 100 μl/well; and negative” for “at 100 µl/well; and negative”
Experimental operations: NCI-H226, CFPAC-1 and MDA-MB-468 cells were prepared in advance and counted; MDA-MB-468 and CFPAC-1 cells were plated at a density of 2×10^4 cells/ml (100 μl/well) and NCI-H226 cells were plated at a density of 1×10^4 cells/ml (100 μl/well) in 96-well plates; and negative control and blank control wells were set on each plate. After adherent cell culture overnight, the diluted samples to be tested were added at 50 μl/well. The plates were placed in an incubator at 37° C., 5% CO2 and cultured for 68-72 hours. […]

[3] = test system: PANC-1 (human pancreatic cancer cells); assay: Inhibition of cell line proliferation, CCK8; assay type: cell-based
Description: as §1, §2
as §3, with “Operations: LNCaP, MDA-MB-468, CFPAC-1 and PANC-1” for “Operations: LNCaP, SK-BR-3, MDA-MB-468 and CFPAC-1”, “CFPAC-1 and PANC-1 cells were” for “MDA-MB-468 and CFPAC-1 cells were”, “cells LNCaP, MDA-MB-468 and” for “cells LNCaP, SK-BR-3, MDA-MB-468 and”, “to 4×10^4 cells/ml, and PANC-1 was diluted to 3.0×10^4 cells/ml; the” for “to 4×10^4 cells/ml; the”, “at 100 μl/well; and negative” for “at 100 µl/well; and negative”

[4] = test system: MDA-MB-468 (human breast cancer cells); assay: Inhibition of cell line proliferation, CCK8; assay type: cell-based
Description: as §3
as §3, with “Operations: LNCaP, MDA-MB-468, CFPAC-1 and PANC-1” for “Operations: LNCaP, SK-BR-3, MDA-MB-468 and CFPAC-1”, “CFPAC-1 and PANC-1 cells were” for “MDA-MB-468 and CFPAC-1 cells were”, “cells LNCaP, MDA-MB-468 and” for “cells LNCaP, SK-BR-3, MDA-MB-468 and”, “to 4×10^4 cells/ml, and PANC-1 was diluted to 3.0×10^4 cells/ml; the” for “to 4×10^4 cells/ml; the”, “at 100 μl/well; and negative” for “at 100 µl/well; and negative”
Experimental operations: NCI-H226, CFPAC-1 and MDA-MB-468 cells were prepared in advance and counted; MDA-MB-468 and CFPAC-1 cells were plated at a density of 2×10^4 cells/ml (100 μl/well) and NCI-H226 cells were plated at a density of 1×10^4 cells/ml (100 μl/well) in 96-well plates; and negative control and blank control wells were set on each plate. After adherent cell culture overnight, the diluted samples to be tested were added at 50 μl/well. The plates were placed in an incubator at 37° C., 5% CO2 and cultured for 68-72 hours. To each well, 15 μl (10% of the liquid volume in a well) of a color developing solution from CCK8 was added; and the plates were incubated at 37° C. for 45-70 minutes and each plate was read at 450 nm on a microplate reader. The data was edited using SoftMax Pro and a 4-P fitting curve was plotted.

[5] = test system: SCLC-21H (small cell lung cancer cells); assay: Tumor growth inhibition in subcutaneous xenograft model (CDX); assay type: in vivo, BALB/c-nude mice; details: SCLC-21H CDX
Description: Main CDX models: HPAF-II (human pancreatic cancer cells), NCI-H226 (human lung cancer cells) and SCLC-21H (small cell lung cancer cells)
The cells or tumor tissue mass were prepared and subcutaneously inoculated into the anterior right flank of BALB/c-nude mice. When the tumor volume expanded to 80-160 mm^3, a randomized grouping was performed, and a model control group and administration groups were set. The mice were administrated from the first day of grouping, wherein the administration dose was adjusted according to the latest weight measurement. The mice were administrated via tail vein injection at an administration volume of 10 μl/g. After grouping and administration, the effects of tumor growth and treatment on normal behaviors of animals, specifically including the activity of experimental animals, food intake and drinking status, weight gain or loss status, and other abnormal conditions in eyes, hair, etc., were monitored. After grouping and administration, the weight of mice was measured twice a week to calculate the rate of weight change; at the same time, the long diameter and short diameter of the tumor were measured with a vernier caliper, and the tumor volume, relative tumor proliferation rate, tumor volume inhibition rate and other indicators were calculated. The formula of tumor volume is TV=0.5 a×b^2, wherein a is […] the long diameter of a tumor and b is the short diameter of a tumor.

CCCC(=O)N[C@@H](Cc1ccccc1)C(=O)N[C@H]1CSSC[C@@H](C(=O)N[C@H](C(=O)N[C@@H](CCCCNC(=O)[C@H](CCC(=O)O)NC(=O)CCOCCOCCOCCOCCNC(=O)[C@H](CCC(=O)O)NC(=O)[C@H](CSC2CC(=O)N(CCCCCC(=O)N[C@H](C(=O)NC(CCCNC(N)=O)C(=O)Nc3ccc(COC(=O)N(C)[C@H](C(=O)N[C@H](C(=O)N(C)[C@@H]([C@@H](C)CC)[C@@H](CC(=O)N4CCC[C@H]4[C@H](OC)[C@@H](C)C(=O)N[C@H](C)[C@@H](O)c4ccccc4)OC)C(C)C)C(C)C)cc3)C(C)C)C2=O)NC(=O)CCCCCNC(=O)[C@H](CCCCN)NC(=O)[C@H](CC(=O)O)NC(=O)[C@H](CC(=O)O)NC(=O)Cc2ccc(CNC(=O)NCCCC[C@H](NC(=O)N[C@@H](CCC(=O)O)C(=O)O)C(=O)O)cc2)C(N)=O)[C@@H](C)O)NC(=O)[C@H]([C@@H](C)O)NC(=O)[C@H](CCCCN)NC(=O)[C@H](Cc2c[nH]c3ccccc23)NC(=O)[C@H](Cc2ccc(O)cc2)NC1=O (stereo partly drawn) [CB-1820] (I: Butyryl-FCYWKTCTK-NH2 / II: {EuK-CO}-[X2]DDK[Ahx]CE[PEG4]E / III: V[ξCit][PABC][NMeV]V[Dil][Dolaproine]-X1; disulfide I:2-I:7; amide I:9-II:C; linker II:6-III:N via Hexanoyl(6-succinimido-3yl))
IC50 ratio (MMAE/conjugate) [1]: 0.1429 | IC50 ([1]; 68-72 hours, CCK8): 21 nM | IC50 (MMAE)/IC50 (conjugate) ([2]; CFPAC-1): 0.0421 | IC50 ([2]; CFPAC-1, 68-72 hours, CCK8): 356 nM | IC50 (MMAE)/IC50 (conjugate) ([3]; PANC-1): 0.0364 | IC50 ([3]; PANC-1, 68-72 hours, CCK8): 55 nM | IC50 (MMAE)/IC50 (conjugate) ([4]; MDA-MB-468): 0.0323 | IC50 ([4]; MDA-MB-468, 68-72 hours, CCK8): 62 nM | anti-tumor growth effect (in words) [5]: obvious anti-tumor growth effect
